Legend:
[1] = test system: Truncated N-terminal huntington 150 Q-EGFP-Neuron 2a cells; assay: Measurement of x-Fold (polyglutamine aggregation inhibitory activity); assay type: cell-based
Procedure: In the present invention, the polyglutamine aggregation inhibitory activity (x-Fold) can be measured, for example, by the method described in the Example.
The number of the aggregated cells, and the total number of cells were counted by Array Scan V T1 (manufactured by Cellomics, Pittuburg, USA), and the ratio of the aggregated cells to the total number of cells was determined (x-Fold). […]

[2] = test system: transglutaminase (TGase); assay: Measurement of TG (TGase inhibitory activity, monodansyl cadaverine / N,N-dimethylcasein fluorescence, FDSS 3000); assay type: biochemical
Method in brief: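 Compound (1 μL of 10 mM stock) added to 0.1 mL reaction: 100 mM HEPES-NaOH pH 7.5, 1 mM CaCl2, 20 μM monodansyl cadaverine, 0.05 mg/mL N,N-dimethylcasein, 5 μg/mL TGase. Rate of fluorescence change at 340 nm measured; DMSO control set to 100; TG50 is the concentration halving activity.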

[3] = polyglutamine aggregation inhibitory activity, Table 1
[4] = ratio of aggregated cells to total number of cells, compound 20 μM, 20 hr, almost 1 without compound, smaller = stronger inhibition
[5] = TGase activity with compound (10 mM, 1 μL in 0.1 ml enzyme reaction solution), DMSO control taken as 100
[6] = TGase inhibitory activity value, Table 1
[7] = polyglutamine aggregation, Truncated N-terminal huntington 150 Q-EGFP-Neuron 2a cells
[8] = TGase inhibitory activity measurement, unit not given

Compound | TGase activity remaining (% of DMSO control = 100) [2, 5] | TGase activity remaining (% of DMSO control = 100) [2, 6] | x-Fold [1, 3] | x-Fold [1, 4] | other results
OB(c1ccccc1)c1cc(B(O)c2ccccc2)cc(B(O)c2ccccc2)c1 [Example 130, 1,3,5-tri(phenylhydroxyboryl)benzene] | 116 | 116 | 0.85 | 0.85 | 
NCCOB(c1ccc(COCc2cccc(B(OCCN)c3cc(F)c(F)c(F)c3)c2)cc1)c1cc(F)c(F)c(F)c1 [Example 354, (3-(3′,4′,5′-trifluorophenylaminoethoxyboryl)benzyl)(4-(3′,4′,5′-trifluorophenylaminoethoxyboryl)benzyl)ether] | 113 | 113 | 1.09 | 1.09 | 
OB(c1ccc(Cl)cc1)c1ccc(Cl)cc1 [Example 115, bis(4-chlorophenyl)borinic acid] | 101 |  |  | 1.07 | 
Cc1ccc(B(O)c2ccc(Oc3ccc(B(O)c4ccc(C)cc4)cc3)cc2)cc1 [Example 440, bis(4,4′-(tolylhydroxyboryl)phenyl)ether] | 63 |  |  | 0.69 | x-Fold [1, 7]: 0.69; TGase activity remaining (% of DMSO control = 100) [2, 8]: 63
Cc1ccc(B(OC(=O)C(N)CCC(N)=O)c2ccc(C)c(Cl)c2)cc1Cl (centres unmarked) [Example 182, di(3-chloro-4-methylphenyl)(glutaminate-O,N)borane] | 137 | 137 | 1.01 | 1.01 | 
COc1ccc(F)cc1B(O)c1ccc(COCc2ccc(B(O)c3cc(F)ccc3OC)cc2)cc1 [Example 349, bis(4-(2-methoxy-5-fluorophenylhydroxyboryl)benzyl)ether] | 104 | 104 | 0.80 | 0.80 | 
Cc1ccc(B(O)c2ccc(Oc3ccc(B(O)c4ccc(C)c(Cl)c4)cc3)cc2)cc1Cl [Example 367, 4,4′-bis(3-chloro-4-methyl-phenylhydroxyboryl)diphenylether] | 113 | 113 | 0.73 | 0.73 | 
NCCNCCOB(c1ccc(COCc2ccc(B(OCCNCCN)c3ccc(F)c(F)c3)cc2)cc1)c1ccc(F)c(F)c1 [Example 419, bis(4,4′-(3,4-difluorophenyl-N-aminoethylaminoethoxyboryl)benzyl)ether] | 140 | 108 | 1.02 | 0.90 | x-Fold [1, 7]: 0.90; TGase activity remaining (% of DMSO control = 100) [2, 8]: 140
NCC(CN)OB(c1ccc(Cl)c(F)c1)c1ccc(Cl)c(F)c1 [Example 235] | 80 | 80 | 1.03 | 1.03 | 
CN(C)CCOB(c1ccc(F)c(Cl)c1)c1ccc(F)c(Cl)c1 [Example 78, 2-dimethylaminoethyl bis(3-chloro-4-fluorophenyl)borinate] | 104 | 104 | 1.02 | 1.02 | 
COc1ccc(B(OCCN(C)C)c2ccc(COCc3ccc(B(OCCN(C)C)c4ccc(OC)cc4)cc3)cc2)cc1 [Example 414, bis(4,4′-(p-methoxyphenyl-N,N-dimethylaminoethoxyboryl)benzyl)ether] | 128 |  |  | 0.90 | x-Fold [1, 7]: 0.90; TGase activity remaining (% of DMSO control = 100) [2, 8]: 128
OB(c1ccc(COCc2ccc(B(O)c3ccc(F)c(F)c3)cc2)cc1)c1ccc(F)c(F)c1 [Example 411, bis(4,4′-(3,4-difluorophenyl-hydroxyboryl)benzyl)ether] | 138 |  |  | 0.90 | x-Fold [1, 7]: 0.90; TGase activity remaining (% of DMSO control = 100) [2, 8]: 138
Cc1ccc(B(O)c2ccc(COCc3cccc(B(O)c4ccc(C)c(Cl)c4)c3)cc2)cc1Cl [Example 341, (3-(3-chloro-4-methylphenylhydroxyboryl)benzyl)(4-(3-chloro-4-methylphenylhydroxyboryl)benzyl)ether] | 107 |  |  | 1.04 | 
CNCCOB(c1cc(Cl)ccc1F)c1cc(Cl)ccc1F [Example 101, methylaminoethyl bis(3-chloro-6-fluorophenyl)borinate] | 122 | 122 | 1.02 | 1.02 | 
O=C(O)CC1[NH2+][B-](c2ccccc2)(c2ccccc2)OC1=O (centres unmarked) [Example 257] | 103 | 103 | 0.98 | 0.98 | 
NC(=O)CCC(N)C(=O)OB(c1ccsc1)c1ccc2sc3ccc(B(OC(=O)C(N)CCC(N)=O)c4ccsc4)cc3c2c1 (centres unmarked) [Example 304, 2,8-di(3-thiophenylglutamine-O,N boryl)dibenzothiophene] | 47 | 47 | 0.90 | 0.90 | 
N#Cc1ccc(B(O)c2ccc(C#N)cc2)cc1 [Example 102, bis(4-cyanophenyl)borinic acid] | 72 |  |  | 1.10 | x-Fold ([1]; polyglutamine aggregation inhibitory activity, Table 1, listed as 5009): 1.10; TGase activity remaining (% of DMSO control = 100) ([2]; TGase inhibitory activity value, Table 1, listed as 5009): 72

Now from value to compound, other results behind:

TGase activity remaining (% of DMSO control = 100) [2, 5] | TGase activity remaining (% of DMSO control = 100) [2, 6] | Compound | x-Fold [1, 3] | x-Fold [1, 4] | other results
91 |  | CCCNCCOB(c1ccc(C(F)(F)F)cc1)c1ccc(C(F)(F)F)cc1 [Example 188, di(trifluoromethylphenyl) 2-propylaminoethylborinate] |  | 0.98 | 
91 | 91 | NCCOB(c1ccccc1)c1ccc(COCc2ccccc2B(OCCN)c2ccccc2)cc1 [Example 335, (2-(phenylaminoethoxyboryl)benzyl) (4-(phenylaminoethoxyboryl)benzyl)ether] | 1.02 | 1.02 | 
123 | 123 | CCCCB(OCCN)c1ccccc1 [Example 112, aminoethyl normal-butyl phenylborinate] | 0.99 | 0.99 | 
143 | 143 | Cc1ccc(B(OCCN)c2ccc(B(OCCN)c3ccc(C)c(Cl)c3)cc2)cc1Cl [Example 128, 1,4-bis(3-chloro-4-methylphenyl-2-aminoethoxyboryl)benzene] | 0.93 | 0.93 | 
111 | 111 | CCCCB(O)c1ccccc1 [Example 108, normal-butyl phenyl borinic acid] | 1.00 | 1.00 | 
112 | 112 | Cc1cc(B(O)c2ccccc2)ccc1B(O)c1ccccc1 [Example 358, 2,5-di(phenylhydroxyboryl)toluene] | 0.91 | 0.91 | 
 | 126 | c1ccc(B(OCCN2CCN(CCOB(c3ccccc3)c3ccccc3)CC2)c2ccccc2)cc1 [Example 356] | 0.94 |  | 
34 |  | CN(C)CCOB(c1ccccc1)c1cccc(COCc2cccc(B(OCCN(C)C)c3ccccc3)c2)c1 [Example 206, bis(3,3′-(phenyldimethylaminoethoxyboryl)benzyl)ether] |  | 1.14 | x-Fold ([1]; polyglutamine aggregation inhibitory activity, Table 1, listed as 3107): 1.14; TGase activity remaining (% of DMSO control = 100) ([2]; TGase inhibitory activity value, Table 1, listed as 3107): 34
89 |  | OB(c1ccccc1)c1cccc(COCc2ccccc2B(O)c2ccccc2)c1 [Example 330, (2-(phenylhydroxyboryl)benzyl)(3-(phenylhydroxyboryl)benzyl)ether] |  | 0.90 | x-Fold ([1]; polyglutamine aggregation inhibitory activity, Table 1, listed as 655): 0.90; TGase activity remaining (% of DMSO control = 100) ([2]; TGase inhibitory activity value, Table 1, listed as 655): 89
109 | 109 | CC(C)CC(N)C(=O)OB(c1ccccc1)c1ccccc1 (centres unmarked) [Example 261, diphenyl(leucinate-O,N)borane] | 0.89 | 0.89 | 
113 |  | NCCC(N)C(=O)OB(c1ccccc1)c1ccc(COCc2ccc(B(OC(=O)C(N)CCN)c3ccccc3)cc2)cc1 (centres unmarked) [Example 453, bis(4,4′-(phenyl-2,4-diaminobutyrateboryl)benzyl)ether] |  | 1.04 | x-Fold [1, 7]: 1.04; TGase activity remaining (% of DMSO control = 100) [2, 8]: 113
109 | 109 | NCCOB(c1cc(F)cc(Cl)c1)c1cc(F)cc(Cl)c1 [Example 99, aminoethyl bis(3-chloro-5-fluorophenyl)borinate] | 0.73 | 0.73 | 

— patent US8853424B2 (Japan Science and Technology Agency, priority 2008, dated 2014)
